Data taken from BindingDB's records for patent US11149040 (Amgen, 2021).

Molecular target: T1, Apelin receptor (Homo sapiens, UniProt P35414)
T1 sequence (P35414 whole entry): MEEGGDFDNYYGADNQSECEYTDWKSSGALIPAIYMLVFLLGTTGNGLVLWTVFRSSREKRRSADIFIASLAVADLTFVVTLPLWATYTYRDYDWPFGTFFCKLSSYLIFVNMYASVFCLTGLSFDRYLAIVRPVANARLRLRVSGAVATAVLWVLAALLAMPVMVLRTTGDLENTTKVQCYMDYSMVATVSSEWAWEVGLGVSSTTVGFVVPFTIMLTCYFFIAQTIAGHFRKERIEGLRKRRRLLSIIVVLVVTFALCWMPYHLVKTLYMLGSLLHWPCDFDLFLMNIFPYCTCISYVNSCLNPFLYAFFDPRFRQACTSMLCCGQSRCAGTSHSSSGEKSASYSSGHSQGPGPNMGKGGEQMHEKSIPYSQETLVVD
Assay: [35S]GTPgammaS Binding
Description: The human APJ receptor was cloned by polymerase chain reaction and the gene encoding the receptor was subcloned in pFLAG-CMV -3 expression vector (Sigma, Saint Louis, Mo. USA) in-house at Amgen. A GTPγS binding assay was performed on membranes prepared from CHO cells stably expressing human APJ receptor. The optimum experimental conditions for the concentrations of GDP, MgCl2, and NaCl in the assay buffer were initially determined. The assay was performed in 9 μL assay buffer [20 mM HEPES, pH 7.5, 5 mM MgCl2, 100 mM NaCl and 0.1% (w/v) BSA], 1 μL of diluted test compound (starting with 0.75 mM, 2-fold serial dilution with DMSO, total 22 points), 10 μL of 18 μM GDP (final concentration of 3 μM GDP), 20 μL of […] membrane protein expressing human APJ receptor captured with WGA PS beads (final concentration of 5 μg per well), and 20 μL of 0.3 nM [35S]GTPγS (final concentration is 0.1 nM [35S]GTPγS)(Perkin Elmer Life and Analytical Sciences, Waltham USA). […] Incubation was at RT for 90 min and the microplate was read using a ViewLux ultra HTS Microplate Imager (PerkinElmer, Inc.). All the results presented are means of several independent experiments and analyzed by non-linear regression methods using the commercially available program Prism (GraphPad, San Diego, Calif.) providing the EC50 values detailed in Table 13.

For `Cc1cnc([C@H](OC(C)C)[C@H](C)S(=O)(=O)Nc2nnc3n2-c2c(F)cccc2/C=C\CC3)nc1` (single isomer, unassigned) [US11149040, Example 49.0], the EC50 was 98 nM.
